From ChEMBL document CHEMBL3352793, “Discovery of pyrrolo-benzo-1,4-diazines as potent Na(v)1.7 sodium channel blockers” (Bioorg Med Chem Lett, 2014) come the findings set out here.

SMILES strings stand for the structures.

Data set [1] in a line: in vivo. The following applies: rat, po, 10 mg/kg.
The species entered for data set [2] is Rattus norvegicus. The following applies: in vivo, po, 10 mg/kg, 6 h.
Data set [3] relates to Brain. The data set can be described thus: Drug uptake in rat brain at 10 mg/kg, po. To be noted: in vivo. The arrangement: dose 10 mg/kg, route oral. The format is ADME, organism-based.
Data set [4] can be described thus: AUC (0 to 24 hrs) in rat at 3 mg/kg, iv. The format is ADME, organism-based. The arrangement: time < 24 hr, dose 3 mg/kg, route intravenous. To be noted: plasma.
The nature of data set [5]: Volume of distribution at steady state in rat at 3 mg/kg, iv. The format is ADME, organism-based. The arrangement: dose 3 mg/kg, route intravenous. The following applies: in vivo, read-out: Vdss.
Data set [6] can be described thus: Mean residence time in rat at 10 mg/kg, po. The format is ADME, organism-based. Further details: dose 10 mg/kg, route oral. To be noted: in vivo.
Data set [7] is described as follows: AUC (0 to 24 hrs) in rat at 10 mg/kg, po. The format is ADME, organism-based. The arrangement: time < 24 hr, dose 10 mg/kg, route oral. The following applies: plasma.
A short description of data set [8]: Tmax in rat at 10 mg/kg, po. To be noted: in vivo. The format is ADME, organism-based. Further details: dose 10 mg/kg, route oral.
The nature of data set [9]: Terminal half life in rat at 3 mg/kg, iv. The following applies: in vivo, read-out: beta t1/2 (converted). The arrangement: dose 3 mg/kg, route intravenous. The format is ADME, organism-based.
The nature of data set [10]: Cmax in rat at 10 mg/kg, po. The class given is ADME, organism-based. Further details: dose 10 mg/kg, route oral. To be noted: in vivo.
The nature of data set [11]: Clearance in rat at 3 mg/kg, iv. Further details: dose 3 mg/kg, route intravenous. The format is ADME, organism-based. The following applies: in vivo.
Data set [12] in a line: Oral bioavailability in rat at 10 mg/kg. The class given is ADME, organism-based. The following applies: in vivo.
Data set [13] can be described thus: Mean residence time in rat at 3 mg/kg, iv. The class given is ADME, organism-based. Further details: dose 3 mg/kg, route intravenous. To be noted: in vivo.

Compound `N#Cc1ccc(C(=O)N2CCC3(CC2)Nc2ccccc2-n2cccc23)cc1` yielded an AUC(0-t) at 6 h in [1] (in vivo) of 1.01 µM·h.
Regarding `CN(C)c1cccc(C(=O)N2CCC3(CC2)Nc2ccccc2-n2cccc23)c1`, the AUC(0-t) at 6 h in data set [1] (in vivo) turned out to be 0.633 µM·h.
For the compound `Cc1cc(C)cc(C(=O)N2CCC3(CC2)Nc2ccccc2-n2cccc23)c1`, the AUC in data set [2] is 0 nM·h.
The compound `COc1ccc2c(c1)NC1(CCN(C(=O)c3ccc(C#N)cc3)CC1)c1cccn1-2` displayed an area under the curve AUC(0-t) at 6 h in data set [1] (in vivo) of 51.1 µM·h.
Still for that read-out and setting: next, `N#Cc1ccc(C(=O)N2CCC3(CC2)Nc2cc(OC(F)(F)F)ccc2-n2cccc23)cc1`: 11.7 µM·h.
Same read-out and setting: next, `N#Cc1ccc(C(=O)N2CCC3(CC2)Nc2cc(C(F)(F)F)ccc2-n2cccc23)cc1`: 15.2 µM·h; `N#Cc1ccc(C(=O)N2CCC3(CC2)Nc2cc(Cl)ccc2-n2cccc23)cc1`: 2.9 µM·h.
Compound `N#Cc1ccc(C(=O)N2CCC3(CC2)Nc2ccc(F)cc2-n2cccc23)cc1` had an AUC(0-t) at 6 h in data set [1] (in vivo) of 12 µM·h.
In [1] (in vivo), `N#Cc1ccc(C(=O)N2CCC3(CC2)Nc2ccc(Cl)cc2-n2cccc23)cc1` yielded an AUC(0-t) at 6 h of 26.1 µM·h.
On the same count and under the same terms, for `N#Cc1ccc(C(=O)N2CCC3(CC2)Nc2ccc(Br)cc2-n2cccc23)cc1` the value was 23.4 µM·h.
`COc1ccc2c(c1)NC1(CCN(C(=O)c3cccc(C)c3)CC1)c1cccn1-2` returned an AUC in [2] of 0 nM·h.
As to `COc1ccc2c(c1)NC1(CCN(C(=O)c3cccc(Cl)c3)CC1)c1cccn1-2`, in data set [2], the AUC turned out to be 0 nM·h.
Take `COc1ccc2c(c1)NC1(CCN(C(=O)c3cccc(C#N)c3)CC1)c1cccn1-2`: the AUC(0-t) at 6 h in data set [1] (in vivo) amounted to 0.783 µM·h.
On the same count and under the same terms, next, `COc1ccc2c(c1)NC1(CCN(C(=O)OCc3ccccc3)CC1)c1cccn1-2`: 13.1 µM·h; `COc1ccc2c(c1)NC1(CCN(Cc3ccccc3)CC1)c1cccn1-2`: 0.37 µM·h.
For the compound `COc1ccc2c(c1)NC1(CCN(C(=O)c3ccccc3OC)CC1)c1cccn1-2`, the exposure (AUC) in [2] is 0 nM·h.
Consider `COc1cccc(C(=O)N2CCC3(CC2)Nc2cc(OC)ccc2-n2cccc23)c1`, for which the AUC in data set [2] worked out at 0 nM·h.
In [1] (in vivo), `COc1ccc(C(=O)N2CCC3(CC2)Nc2cc(OC)ccc2-n2cccc23)cc1` yielded an AUC(0-t) at 6 h of 91.5 µM·h.
Consider `COc1ccc2c(c1)NC1(CCN(C(=O)c3ccc(C)cc3)CC1)c1cccn1-2`, for which the AUC(0-t) at 6 h in data set [1] (in vivo) is 17.2 µM·h.
Still for that read-out and setting: next, `COc1ccc2c(c1)NC1(CCN(C(=O)c3ccc(Cl)cc3)CC1)c1cccn1-2`: 1.96 µM·h.
In [1] (in vivo), `COc1ccc2c(c1)NC1(CCN(C(=O)c3ccc(N(C)C)cc3)CC1)c1cccn1-2` registered an AUC(0-t) at 6 h of 9.44 µM·h.
For `COc1ccc2c(c1)NC1(CCN(C(=O)c3ccc(C#N)c(OC)c3)CC1)c1cccn1-2`, in data set [1] (in vivo), the AUC(0-t) at 6 h amounted to 26.6 µM·h.
Still for that read-out and setting: next, `COc1ccc2c(c1)NC1(CCN(C(=O)c3ccc(N(C)C)c(Cl)c3)CC1)c1cccn1-2`: 1.27 µM·h.
`COc1ccc2c(c1)NC1(CCN(C(=O)c3ccc(OC)c(Cl)c3)CC1)c1cccn1-2`: in data set [1] (in vivo), the AUC(0-t) at 6 h stood at 6.81 µM·h.
As to `COc1ccc2c(c1)NC1(CCN(C(=O)c3ccc(OC)c(N(C)C)c3)CC1)c1cccn1-2`, the Drug uptake in [3] came to 257 ng/g. Also, the AUC(0-t) at 24 h in [4] was 17.4 µM·h; in data set [7], 65.9 µM·h. In addition, in [5], the Vd was 1.2 L/kg. The MRT in [6] was 4.7 h; in [13], 3 h. Further, in [8], the Tmax stood at 1.3 h. In addition, the half-life in data set [9] was 174 min. The same compound showed an AUC(0-t) at 6 h in data set [1] (plasma) of 20.3 µM·h. Also, in data set [10], the concentration peaked (Cmax) at 9.3 µM. Besides, in data set [11], the clearance turned out to be 6.5 mL/min/kg. The compound also returned a bioavailability in data set [12] of 100%.
In data set [1] (in vivo), `COc1ccc2c(c1)NC1(CCN(C(=O)c3cc(C)cc(C)c3)CC1)c1cccn1-2` had an AUC(0-t) at 6 h of 0.788 µM·h.

Broadly, the AUC(0-t) is the area under the concentration-time curve up to a stated or last time point. Lower therefore signals less exposure. By AUC is commonly meant concentration integrated over time. Low readings indicate low exposure, high ones high exposure. Usually MRT stands for a mean duration of stay, worked out from the concentration-time curve. In general, Tmax refers to the time at which the peak concentration occurs. What is called Cmax is the peak of the concentration-time curve. One may read the clearance as a measure of how efficiently the substance is removed, as volume per time. As a reminder, the bioavailability is the share of a dose that reaches the circulation, judged against a reference dose that is usually intravenous. Read a low bioavailability as little systemic uptake.
